Structures can show the parent of a compound that is named as a salt.
Key:
Format in all cases: physicochemical
dsDNA = assay: Quantum yield, absorbance and emission of dyes with dsDNA; details: for Em λ (ds DNA): Example 1; for absorbance λEx dsDNA / emission λmaxEM dsDNA: Table 1
ds DNA = assay: Relative brightness of stains with ds DNA (protocol of Nygren et al.)
Method: (§1) The relative brightness of certain compounds (Table 2) was determined based on the protocol in Nygren, J., Svanvik, N., Kubista, M. (1998) Biopolymers, Vol. 46, 39-51, which is incorporated by reference herein.

ss DNA = assay: Relative brightness of stains with ss DNA (protocol of Nygren et al.)
Method: as §1

| Compound | Em λ (ds DNA) (dsDNA) [nm] | quantum yield (Φ) dsDNA (dsDNA) | absorbance λEx dsDNA (dsDNA) [nm] | emission λmaxEM dsDNA (dsDNA) | Relative Brightness ds DNA (ds DNA) | Relative Brightness ss DNA (ss DNA) |
| --- | --- | --- | --- | --- | --- | --- |
| CN(C)CCCN(CCCN(C)C)C1=C/C(=C\c2sc3cccc4c3[n+]2CCC4)c2ccccc2N1c1ccccc1 [PBI 3646, 1-((2-(Bis(3-(dimethylamino)propyl)amino)-1-phenylquinolin-4(1H)-ylidene)methyl)-7,8-dihydro-6H-thiazolo[5,4,3-ij]quinolin-9-ium] | 531 | 0.43 | 504 | 531 |  |  |
| CCCN(CCCN(C)C)C1=C/C(=C\c2sc3cccc4c3[n+]2CCC4)c2ccccc2N1c1ccccc1 [PBI 3654, 1-((2-((3-(Dimethylamino)propyl)(propyl)amino)-1-phenylquinolin-4(1H)-ylidene)methyl)-7,8-dihydro-6H-thiazolo[5,4,3-ij]quinolin-9-ium] | 529 | 0.70 | 498 | 529 |  |  |
| CN(C)CCN(Cc1ccccc1)c1cc(/C=C2/Sc3cccc4c3N2CCC4)c2ccccc2[n+]1-c1ccccc1 [PBI 3666, 2-(benzyl(2-(dimethylamino)ethyl)amino)-4-((5,6-dihydrothiazolo[5,4,3-ij]quinolin-2(4H)-ylidene)methyl)-1-phenylquinolinium trifluoroacetate] |  | 0.34 | 494 | 535 |  |  |
| CCCCN(CCCN(C)C)c1cc(/C=C2/Sc3cccc4c3N2CCC4)c2ccccc2[n+]1-c1ccccc1 [PBI 3667, 2-(butyl(3-(dimethylamino)propyl)amino)-4-((5,6-dihydrothiazolo[5,4,3-ij]quinolin-2(4H)-ylidene)methyl)-1-phenylquinolinium trifluoroacetate] |  | 0.68 | 494 | 529 |  |  |
| CN(C)CCCN(CCCN(C)C)C1=C/C(=C\c2sc3cccc4c3[n+]2CCC4)c2ccccc2N1CCCc1ccccc1 [PBI 3675, 1-((2-(bis(3-(dimethylamino)propyl)amino)-1-(3-phenylpropyl)quinolin-4(1H)-ylidene)methyl)-7,8-dihydro-6H-thiazolo[5,4,3-ij]quinolin-9-ium] | 535 | 0.31 | 503 | 535 |  |  |
| CCN(CC)c1cc(/C=C2\Sc3cccc4c3N2CCC4)c2ccccc2[n+]1-c1ccccc1 [PBI 3676, 2-(diethylamino)-4-((5,6-dihydrothiazolo[5,4,3-ij]quinolin-2(4H)-ylidene)methyl)-1-phenylquinolinium trifluoroacetate] |  | 0.48 | 494 | 527 |  |  |
| CCCN(CCCN(C)C)c1cc(/C=C2\Sc3cccc4c3N2CCC4)c2ccccc2[n+]1Cc1ccccc1 [PBI 3677, 1-benzyl-4-((5,6-dihydrothiazolo[5,4,3-ij]quinolin-2(4H)-ylidene)methyl)-2-((3-(dimethylamino)propyl)(propyl)amino)quinolinium trifluoroacetate] |  | 0.72 | 494 | 533 |  |  |
| CCCN(CCCN(C)C)c1cc(/C=C2\Sc3cccc4c3N2CCC4)c2ccccc2[n+]1C [PBI 3678, 1-methyl-4-((5,6-dihydrothiazolo[5,4,3-ij]quinolin-2(4H)-ylidene)methyl)-2-((3-(dimethylamino)propyl)(propyl)amino)quinolinium trifluoroacetate] |  | 0.68 | 494 | 529 |  |  |
| CCCN(CCCN(C)C)c1cc(/C=C2/Sc3cccc4c3N2CCC4)c2ccccc2[n+]1CCCc1ccccc1 [PBI 3679, 4-((5,6-Dihydrothiazolo[5,4,3-ij]quinolin-2(4H)-ylidene)methyl)-2-((3-(dimethylamino)propyl)(propyl)amino)-1-(3-phenylpropyl)quinolinium] | 533 | 0.34 | 499 | 533 |  |  |
| COc1ccc2c(/C=C3\Sc4cccc5c4N3CCC5)cc(N(CCC[N+](C)(C)C)CCC[N+](C)(C)C)[n+](Cc3ccccc3)c2c1 [PBI 4050, 1-Benzyl-2-(bis(3-(trimethylammonio)propyl)amino)-4-((5,6-dihydrothiazolo[5,4,3-ij]quinolin-2(4H)-ylidene)methyl)-7-methoxyquinolinium] |  |  |  |  | 0.63 | 1.23 |
| COc1ccc2c(/C=C3\Sc4cccc5c4N3CCC5)cc(N(C)C)[n+](Cc3ccccc3)c2c1 [PBI 4051, 1-benzyl-4-((5,6-dihydrothiazolo[5,4,3-ij]quinolin-2(4H)-ylidene)methyl)-2-(dimethylamino)-7-methoxyquinolinium] |  |  |  |  | 0.67 | 1.10 |
| COc1ccc2c(/C=C3\Sc4cccc5c4N3CCC5)cc(N(CCC[N+](C)(C)C)CCC[N+](C)(C)C)[n+](C)c2c1 [PBI 4052, 2-(bis(3-(trimethylammonio)propyl)amino)-4-((5,6-dihydrothiazolo[5,4,3-ij]quinolin-2(4H)-ylidene)methyl)-7-methoxy-1-methylquinolinium] |  |  |  |  | 0.74 | 2.41 |
| CCCN(CCC[N+](C)(C)C)c1cc(/C=C2\Sc3cccc4c3N2CCC4)c2ccc(OC)cc2[n+]1-c1ccccc1 [PBI 4054, 4-((5,6-dihydrothiazolo[5,4,3-ij]quinolin-2(4H)-ylidene)methyl)-7-methoxy-1-phenyl-2-(propyl(3-(trimethylammonio)propyl)amino)quinolinium] |  |  |  |  | 1.19 | 3.10 |
| CCCN(CCCN(C)C)c1cc(/C=C2/Sc3ccccc3N2C)c2ccccc2[n+]1-c1ccccc1 [SYBR Green 1, reference compound] |  |  |  |  | 1 |  |
| CN(C)CCN(C)C1=C/C(=C\c2sc3cccc4c3[n+]2CCC4)c2ccccc2N1c1ccccc1 [compound 3568, 1-((2-((2-(Dimethylamino)ethyl)(methyl)amino)-1-phenylquinolin-4(1H)-ylidene)methyl)-7,8-dihydro-6H-thiazolo[5,4,3-ij]quinolin-9-ium] | 529 | 0.39 | 466 | 529 |  |  |
| CN1C=C/C(=C\c2sc3cccc4c3[n+]2CCC4)c2ccccc21 [compound 3632, 1-((1-Methylquinolin-4(1H)-ylidene)methyl)-7,8-dihydro-6H-thiazolo[5,4,3-ij]quinolin-9-ium] | 529 | 0.2 | 504 | 529 |  |  |
| CCCN(CCC[N+](C)(C)C)c1cc(/C=C2\Sc3cccc4c3N2CCC4)c2ccc(OC)cc2[n+]1C [compound 4053, 4-((5,6-dihydrothiazolo[5,4,3-ij]quinolin-2(4H)-ylidene)methyl)-7-methoxy-1-methyl-2-(propyl(3-(trimethylammonio)propyl)amino)quinolinium] |  |  |  |  | 1.26 | 1.82 |

From patent US9458499B2, “Nucleic acid binding dyes and uses therefor” (PROMEGA CORPORATION, priority 2009, dated 2016)
